# Where two headings read alike, the source gives them in different places.
# Columns and labels:
# TRKB = target: T1, TRKB (Homo sapiens, UniProt Q16620); test: In vitro kinase inhibitory activity assay, Experimental method 2 (ADP-Glo); type: biochemical
# T1 construct: purchased Carna
# Protocol: (§1) The kinase inhibitory activity assays of the compounds against ALK, ALK^L1196M, ALK^G1202R, ALK^G1202R/L1196M, ROS1, and TRKB were conducted at Wuhan Heyan Biotechnology Co., Ltd. or Hefei PreceDo Biotechnology Co., Ltd.
# (§2) Experimental materials: ALK (G1202R/L1196M) Active and TRKB were purchased from Carna; IGF1 was purchased from GenScript; PolyE4Y1 was purchased from SIGMA; ADP-Glo™ Reagent was purchased from Promega; ATP was purchased from Promega; Kinase Detection Reagent was purchased from Promega; microplate reader ( PerkinElmer).
# TRKB reaction concentration 4.47 nM, ATP concentration 5.0 µM, substrate PolyE4Y1 concentration 0.2 µg/µL. TRKB kinase buffer was 40 mM Tris-HCl (pH 7.5) + 20 mM magnesium chloride + 2.5 mM manganese chloride + 0.1mg/mL BSA+ 50 µM DTT.
# (§3) ALK(G1202R/L1196M) and TRKB detection method: 2 µL of kinase and 1 µL of compound were added to a 384-well plate; 2 µL of substrate/ATP mixture was added and incubated at room temperature in the dark for 60 minutes; 5 µL of ADP-Glo™ reagent was added and incubated at room temperature for 40 minutes; 10 µL of kinase detection reagent was added and incubated at room temperature for 30 minutes; the plate was read on a microplate reader, and luminescence was recorded (integration time set to 0.5 seconds).
# (§4) The IC50 value could then be derived by performing a curve fit using a four-parameter logistic model (obtained using the "log(inhibitor) vs. response -- Variable slope" mode in GraphPad Prism).
# ALK(G1202R/L1196M) [1] = target: T2, ALK(G1202R/L1196M) (Homo sapiens, UniProt Q9UM73, G1202R/L1196M); test: as above; type: biochemical
# T2 construct: purchased Carna
# Protocol: as §1, §2
# Reaction system: ALK(G1202R/L1196M) reaction concentration 8.63 nM, ATP concentration 5.0 µM, substrate IGF1 concentration 0.2 µg/µL. ALK(G1202R/L1196M) kinase buffer was 40 mM Tris-HCl (pH 7.5) + 20 mM magnesium chloride + 0.1 mg/mL BSA + 50 µM DTT.
# as §3, §4
# ALK(G1202R) = target: T3, ALK(G1202R) (Homo sapiens, UniProt Q9UM73, G1202R); test: In vitro kinase inhibitory activity assay, Experimental method 1 (ADP-Glo); type: biochemical; conditions: final ATP 50 µM, read-out: Kinase half maximal inhibitory concentration IC50 ALK^G1202R
# T3 construct: purchased Carna
# Protocol: as §1
# (§5) Experimental materials: ALK Active, ALK(L1196M) Active, ALK(G1202R) Active, and ALK(G1202R/L1196M) Active were purchased from Carna; SRC Substrate was purchased from SignalChem; IGF1R tide was purchased from SignalChem; ADP-Glo Kinase Assay was purchased from Promega; Kinase assay buffer III was purchased from SignalChem; and Nivo multimode plate reader (PerkinElmer).
# (§6) Each concentration of the compounds was further diluted 20-fold using 1X kinase buffer to prepare compound working solutions containing 5% DMSO. 1 µL of each concentration gradient working solution was added to a microplate, with duplicate wells set for each concentration. 2 µL of ALK enzyme (15 ng per well) and 2 µL of a mixture of substrate and ATP (25 µM ATP, 0.5 µg/µL SRC Substrate) were added to the microplate. […] The reaction system was placed at 25°C for 1 hour. After the reaction, 5 µL of ADP-Glo reagent was added to each well and reacted at 25°C for another 40 minutes. After the reaction, 10 µL of kinase detection reagent was added to each well and reacted at 25°C for 30 minutes. Chemiluminescence was then measured using the PerkinElmer Nivo multimode plate reader with an integration time of 0.5 seconds.
# ALK (G1202R) kinase inhibition assay method: The preparation method for the working solution of the test compound was the same as for the ALK kinase. […] The subsequent steps were the same as for ALK kinase.
# as §4
# ALK(G1202R/L1196M) [2] = target: T2, ALK(G1202R/L1196M); test: as above; type: biochemical; conditions: final ATP 50 µM, read-out: Kinase half maximal inhibitory concentration IC50 ALK^G1202R/L1196M
# Protocol: as §1, §5, §6
# ALK (G1202R/L1196M) kinase inhibition assay method: The preparation method for the working solution of the test compound was the same as for the ALK kinase. […] The subsequent steps were the same as for ALK kinase.
# as §4
# Ba/F3-TEL-TRKB = test: Anti-proliferative activity test on Ba/F3 cell lines (CellTiter-Glo); type: cell-based; conditions: Mus musculus, BaF3; 72 hours; read-out: Half maximal inhibitory concentration IC50 for cells Ba/F3-TEL-TRKB
# Protocol: (§7) • (1) Cell culture: The cell lines were cultured in an incubator at 37°C with 5% CO2. Regular passaging was performed, and cells in the logarithmic growth phase were selected for plating; • (2) Preparation of compound storage plate: The test compounds were prepared into a 10 mM solution with DMSO (Stock Con.); The compounds were then prepared into a 1 mM solution with DMSO (Work Con.); 1 µL of the stock solution was mixed with 9 µL of DMSO to prepare a 10 µL work solution. • (3) Preparation of 1000× compound storage plate (tube): The compounds were 3-fold serially diluted from […] to the lowest concentration, for a total of 8 concentrations; • (4) Preparation of 20× compound working solution: 98 µL of cell culture medium was added to a flat-bottomed 96-well transparent drug plate. From the 1000× compound storage plate, 2 µL of the compound was pipetted into the cell culture medium in the 96-well transparent drug plate. In the solvent control, 2 µL of DMSO was added. After the compound or DMSO was added, the mixture was homogenized using a pipette. • (5) Cells were stained with trypan blue and viable cells were counted to ensure a cell viability of 90% or more. The cell concentration was adjusted to an appropriate concentration; • (6) 95 µL of cell suspension (2000 cells/well) was added to each well of the compound assay cell plate, and cell-free culture medium containing 0.1% DMSO was added to the Min control wells; • (7) Administration in the compound assay cell plate: 5 µL of 20× compound working solution was added to the cell culture plate, 5 µL of DMSO-cell culture medium mixture was added to the Max control wells, and the final concentration of DMSO was 0.1%; • (8) The culture plate was then incubated in an incubator at 37°C with 5% CO2 for 72 hours; • (9) The following operations were conducted in accordance with the instructions of the Promega CellTiter-Glo Luminescent Cell Viability Assay Kit (Promega-G7573): CellTiter-Glo buffer was thawed and brought to room temperature; CellTiter-Glo substrate was brought to room temperature; CellTiter-Glo buffer was added to a bottle of CellTiter-Glo substrate to dissolve the substrate, thereby preparing CellTiter-Glo working solution; The mixture was slowly vortexed and shaken to be fully dissolved; The cell culture plate was removed and allowed to equilibrate to room temperature for 10 minutes; 50 µL (equal to half the volume of cell culture medium in each well) of CellTiter-Glo working solution was added to each well; The culture plate was shaken on an orbital shaker for 2 minutes to induce cell lysis; The plate was then left at room temperature for 10 minutes to stabilize the luminescent signal; The luminescent signal was detected using a SpectraMax Paradigm plate reader; Cell viability assay was conducted using CellTiter-Glo luminescence method.
# (§8) Data analysis: The corresponding […] value (RLU) for each well was obtained from SpectraMax Paradigm readings. […] The inhibition rates corresponding to compounds at different concentrations were calculated in Excel, and the inhibition rate curves were plotted using GraphPad Prism software to calculate relevant parameters, including the maximum and minimum inhibition rates of the cells and the IC50 value.
# [3] = test system: Ba/F3-EML4-ALK-G1202R/L1196M; test: as above; type: cell-based; conditions: Ba/F3 EML4-ALK-G1202R-L1196M; 72 hours; read-out: Half maximal inhibitory concentration IC50 for cells Ba/F3-EML4-ALK-G1202R/L1196 M
# Protocol: as §7, §8
# [4] = Experimental method 2, ATP 5.0 µM, substrate PolyE4Y1, read-out: Kinase half maximal inhibitory concentration IC50 TRKB
# [5] = Experimental method 2, ATP 5.0 µM, substrate IGF1, read-out: Kinase half maximal inhibitory concentration IC50 ALK^G1202R/L1196M
# T2 sequence (Q9UM73 19-1620 L1196M/G1202R): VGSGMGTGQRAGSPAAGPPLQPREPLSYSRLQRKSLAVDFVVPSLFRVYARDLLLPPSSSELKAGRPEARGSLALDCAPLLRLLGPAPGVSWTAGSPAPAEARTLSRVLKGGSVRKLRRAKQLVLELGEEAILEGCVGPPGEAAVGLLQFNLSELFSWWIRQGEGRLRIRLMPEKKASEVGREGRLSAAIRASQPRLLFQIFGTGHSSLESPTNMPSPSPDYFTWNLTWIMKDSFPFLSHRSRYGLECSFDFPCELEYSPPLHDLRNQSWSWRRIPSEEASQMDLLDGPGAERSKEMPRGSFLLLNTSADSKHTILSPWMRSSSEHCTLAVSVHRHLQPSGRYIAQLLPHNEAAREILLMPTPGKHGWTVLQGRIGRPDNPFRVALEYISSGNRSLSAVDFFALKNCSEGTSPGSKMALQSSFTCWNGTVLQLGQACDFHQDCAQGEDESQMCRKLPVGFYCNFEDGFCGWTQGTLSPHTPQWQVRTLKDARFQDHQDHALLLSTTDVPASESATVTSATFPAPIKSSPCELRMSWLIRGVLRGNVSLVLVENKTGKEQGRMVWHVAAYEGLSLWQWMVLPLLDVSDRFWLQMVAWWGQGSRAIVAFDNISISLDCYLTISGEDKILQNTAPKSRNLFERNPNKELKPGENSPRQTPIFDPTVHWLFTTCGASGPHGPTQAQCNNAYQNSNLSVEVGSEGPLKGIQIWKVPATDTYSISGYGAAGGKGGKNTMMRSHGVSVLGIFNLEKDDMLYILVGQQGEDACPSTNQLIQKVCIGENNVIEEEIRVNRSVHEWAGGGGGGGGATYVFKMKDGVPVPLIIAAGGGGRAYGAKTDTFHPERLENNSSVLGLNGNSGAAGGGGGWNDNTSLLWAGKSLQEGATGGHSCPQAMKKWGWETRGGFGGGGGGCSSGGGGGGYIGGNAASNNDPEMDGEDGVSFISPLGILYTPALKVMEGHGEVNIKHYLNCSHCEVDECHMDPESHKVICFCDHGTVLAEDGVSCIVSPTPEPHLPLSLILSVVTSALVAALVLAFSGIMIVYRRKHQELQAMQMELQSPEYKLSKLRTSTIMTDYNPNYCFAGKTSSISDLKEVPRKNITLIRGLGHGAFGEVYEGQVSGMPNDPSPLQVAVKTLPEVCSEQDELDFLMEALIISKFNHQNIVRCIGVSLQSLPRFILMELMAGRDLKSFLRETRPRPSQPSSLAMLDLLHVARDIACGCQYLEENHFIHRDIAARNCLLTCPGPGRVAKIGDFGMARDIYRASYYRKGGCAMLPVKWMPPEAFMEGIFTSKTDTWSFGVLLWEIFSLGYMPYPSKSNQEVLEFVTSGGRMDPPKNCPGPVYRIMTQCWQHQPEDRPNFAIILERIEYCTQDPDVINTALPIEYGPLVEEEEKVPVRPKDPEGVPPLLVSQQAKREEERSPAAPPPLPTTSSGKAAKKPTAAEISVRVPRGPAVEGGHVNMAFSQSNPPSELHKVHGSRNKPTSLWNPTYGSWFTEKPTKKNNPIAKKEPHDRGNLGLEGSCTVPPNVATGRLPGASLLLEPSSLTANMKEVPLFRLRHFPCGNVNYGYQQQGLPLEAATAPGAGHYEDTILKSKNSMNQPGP
# T1 sequence (Q16620 32-822): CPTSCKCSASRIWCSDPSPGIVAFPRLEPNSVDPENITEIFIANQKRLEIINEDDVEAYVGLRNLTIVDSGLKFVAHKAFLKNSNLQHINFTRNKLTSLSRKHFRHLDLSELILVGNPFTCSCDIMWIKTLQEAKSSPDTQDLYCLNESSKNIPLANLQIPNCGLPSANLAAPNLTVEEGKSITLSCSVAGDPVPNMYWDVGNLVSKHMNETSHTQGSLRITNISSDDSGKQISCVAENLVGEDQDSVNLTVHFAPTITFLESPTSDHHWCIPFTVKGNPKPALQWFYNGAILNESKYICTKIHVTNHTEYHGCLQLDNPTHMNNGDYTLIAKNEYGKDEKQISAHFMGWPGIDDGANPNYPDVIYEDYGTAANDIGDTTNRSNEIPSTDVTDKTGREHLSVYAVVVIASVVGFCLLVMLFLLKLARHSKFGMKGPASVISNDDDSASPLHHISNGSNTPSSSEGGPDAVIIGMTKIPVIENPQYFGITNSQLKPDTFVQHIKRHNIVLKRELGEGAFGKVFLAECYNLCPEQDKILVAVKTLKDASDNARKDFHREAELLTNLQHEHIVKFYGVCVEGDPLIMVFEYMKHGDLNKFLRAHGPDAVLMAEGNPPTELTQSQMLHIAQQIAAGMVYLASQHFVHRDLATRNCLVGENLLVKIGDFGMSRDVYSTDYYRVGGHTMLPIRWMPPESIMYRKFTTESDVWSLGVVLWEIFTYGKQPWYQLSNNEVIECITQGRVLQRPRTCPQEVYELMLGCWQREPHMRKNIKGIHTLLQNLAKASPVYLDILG
# T3 sequence (Q9UM73 19-1620 G1202R): as the sequence (Q9UM73 19-1620 L1196M/G1202R) above, with M1178L counted along it
smiles,measurement,setting,value
Cc1nn2cc3c4nc2c1C(=O)NC(C)(C)COc1ncc(F)cc1CN4[C@H](C(F)F)CO3 [Compound 015],IC50,TRKB; [4],1.1 nM
same,IC50,ALK(G1202R/L1196M) [1]; [5],0.6 nM
CC1(C)COc2ccc(F)cc2CN2c3nc4c(cc3OC[C@H]2C(F)F)ncn4C(=O)N1 [Compound 007],IC50,TRKB,2.6 nM
same,IC50,ALK(G1202R/L1196M) [1],1 nM
CCON=C1NC(C)(C)COc2ccc(F)cc2CN2c3nc4c1cnn4cc3OC[C@H]2C(F)F [Compound 002],IC50,ALK(G1202R),27.8 nM
same,IC50,ALK(G1202R/L1196M) [2],14.6 nM
COCCON=C1NC(C)(C)COc2ccc(F)cc2CN2c3nc4c1cnn4cc3OC[C@H]2C(F)F [Compound 003],IC50,ALK(G1202R),12.2 nM
same,IC50,ALK(G1202R/L1196M) [2],11.3 nM
CC1(C)COc2ccc(F)cc2CN2c3nc4c(cc3OC[C@H]2C(F)F)ncn4C(=S)N1 [Compound 008],IC50,TRKB; [4],7.8 nM
same,IC50,ALK(G1202R/L1196M) [1]; [5],1.7 nM
Cc1nn2cc3c4nc2c1C(=O)NC(C)(C)COc1ccc(F)cc1CN4[C@H](C(F)F)CO3 [Compound 006],IC50,TRKB; [4],1.2 nM
same,IC50,ALK(G1202R/L1196M) [1]; [5],0.6 nM
O=C1N[C@H]2C[C@H](C2)Oc2ccc(F)cc2CN2c3nc4c1c(Br)nn4cc3OC[C@H]2C(F)F [Compound 023],IC50,TRKB; [4],1.5 nM
same,IC50,Ba/F3-TEL-TRKB,1.8 nM
same,IC50,[3],10.8 nM
same,IC50,ALK(G1202R/L1196M) [1]; [5],1.2 nM
Cc1nc2cc3c4nc2n1C(=O)NC(C)(C)COc1ccc(F)cc1CN4[C@H](C(F)F)CO3 [Compound 012],IC50,TRKB,2.9 nM
same,IC50,Ba/F3-TEL-TRKB,5.2 nM
same,IC50,[3],7 nM
same,IC50,ALK(G1202R/L1196M) [1],1.5 nM
